The target of assay [1] is T1, nuclear factor-kappa B (NF-kB)-inducing kinase (NIK) (Homo sapiens, UniProt Q99558).
T1 construct: made in house; host or cells: baculovirus-infected insect cells
As to the kind of experiment: NIK enzyme inhibition assay (Transcreener ADP fluorescence polarization, NIK ADP-FP). Type of assay: biochemical. In general terms: In fluorescence polarisation assays a small probe gives low polarisation when free and higher when bound to something large.

Assay [2] has as its system REL-A (p65) nuclear translocation in HeLa cells. As to the kind of experiment: REL-A (p65) nuclear translocation assay in HeLa cells, TNF-α stimulated (classical NF-kB signaling), high content imaging. Format: cell-based. The following applies: Homo sapiens, HeLa, compound 4.5 h, then 10 ng/mL TNF-α for 30 minutes, read-out: REL-A HeLa Transloc Assay (IC50). The method, boiled down:
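HeLa cells in medium with 10% fetal bovine serum were exposed to compounds (0.2% DMSO final) for 4.5 hours, then stimulated with 10 ng/mL TNF-α for 30 minutes. After fixation in 4% paraformaldehyde and permeabilization with 0.1% Triton X-100, cells were stained with 400 ng/mL anti-REL-A (p65) antibody, an Alexa488 secondary and DRAQ5. Opera imaging quantified the nuclear-to-cytoplasmic signal ratio to give IC50.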

Assay [3] deals with p52 (NF-kB2) nuclear translocation in HeLa cells. As to the kind of experiment: p52 (NF-kB2) nuclear translocation assay in HeLa cells, anti-lymphotoxin beta receptor antibody stimulated (non-classical NF-kB signaling), high content imaging. Format: cell-based. The following applies: Homo sapiens, 100 ng/mL anti-lymphotoxin beta receptor antibody for 5 hours, read-out: p52 HeLa Transloc Assay (IC50). The method, boiled down:
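HeLa cells in 10% FBS medium were treated with compound (0.2% DMSO final) and stimulated with 100 ng/mL anti-lymphotoxin beta receptor antibody for 5 h. Fixed cells were immunostained for p52 and imaged with DRAQ5 nuclear stain. Translocation is the nuclear to cytoplasmic intensity ratio, […].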

The structures appear in SMILES notation.

T1 sequence (Q99558 whole entry): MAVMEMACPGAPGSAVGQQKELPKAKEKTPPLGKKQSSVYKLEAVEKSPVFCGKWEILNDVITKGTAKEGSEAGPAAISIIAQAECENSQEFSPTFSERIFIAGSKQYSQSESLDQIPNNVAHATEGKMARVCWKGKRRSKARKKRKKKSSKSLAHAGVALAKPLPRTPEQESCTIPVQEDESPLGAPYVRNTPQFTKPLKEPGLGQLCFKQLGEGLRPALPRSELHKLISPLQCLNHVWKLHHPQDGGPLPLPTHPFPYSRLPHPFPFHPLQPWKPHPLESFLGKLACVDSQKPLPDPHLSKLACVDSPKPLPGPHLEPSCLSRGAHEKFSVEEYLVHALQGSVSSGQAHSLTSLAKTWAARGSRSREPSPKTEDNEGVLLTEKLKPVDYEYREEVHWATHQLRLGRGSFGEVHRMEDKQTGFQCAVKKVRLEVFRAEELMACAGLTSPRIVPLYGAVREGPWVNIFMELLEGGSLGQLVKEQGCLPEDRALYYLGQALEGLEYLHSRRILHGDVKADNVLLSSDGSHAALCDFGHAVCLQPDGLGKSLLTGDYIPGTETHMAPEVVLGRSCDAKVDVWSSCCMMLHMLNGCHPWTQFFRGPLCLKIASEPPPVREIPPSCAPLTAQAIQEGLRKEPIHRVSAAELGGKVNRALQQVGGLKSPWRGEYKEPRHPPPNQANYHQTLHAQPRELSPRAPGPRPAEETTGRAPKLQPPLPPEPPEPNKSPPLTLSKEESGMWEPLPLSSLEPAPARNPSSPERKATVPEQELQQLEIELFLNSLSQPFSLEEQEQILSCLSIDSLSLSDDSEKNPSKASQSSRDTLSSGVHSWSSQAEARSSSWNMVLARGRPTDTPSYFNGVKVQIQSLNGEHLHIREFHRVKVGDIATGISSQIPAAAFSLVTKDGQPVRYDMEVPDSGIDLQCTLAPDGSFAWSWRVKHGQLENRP

Consider `CN1CC[C@@](O)(C#Cc2cc(F)cc(-c3nc(C(N)=O)cn4ccnc34)c2)C1=O` [Example 161, 8-[3-fluoro-5-[2-[(3R)-3-hydroxy-l-methyl-2-oxo-pyrrolidin-3-yl]ethynyl]phenyl]imidazol [1,2-a]pyrazine-6-carboxamide], for which, in assay [1], affinity was put at a Ki of 0.33 nM. For the same molecule, the half-inhibitory concentration (IC50) in assay [2] is > 2000 nM; in assay [3], 445 nM.
Take `CN1CC[C@@](O)(C#Cc2cccc(-c3cc(OC(F)F)cc(C(N)=O)n3)c2)C1=O` [Example 162, 4-(difluoromethoxy)-6-[3-[2-[(3R)-3-hydroxy-l-methyl-2-oxo-pyrrolidin-3-yl]ethynyl]phenyl]pyridine-2-carboxamide]: the Ki in assay [1] was < 0.05 nM. Besides, the IC50 in assay [2] is > 2000 nM; in assay [3], 67 nM.
The corresponding values for `Cc1cc(C(N)=O)nc(-c2ccc(F)c(C#C[C@]3(O)CCN(C)C3=O)c2)c1` [Example 164, 6-[4-fluoro-3-[2-[(3R)-3-hydroxy-1-methyl-2-oxo-pyrrolidin-3-yl]ethynyl]phenyl]-4-methyl-pyridine-2-carboxamide] are < 0.05 nM, > 2000 nM and 62 nM.
`Cc1ncc(-c2cccc(C#C[C@]3(O)CCN(C)C3=O)c2)nc1C(N)=O` [Example 165, 6-[3-[2-[(3R)-3-hydroxy-1-methyl-2-oxo-pyrrolidin-3-yl]ethynyl]phenyl]-3-methyl-pyrazine-2-carboxamide] gave a Ki in assay [1] of 0.08 nM. The half-inhibitory concentration (IC50) is > 2000 nM in assay [2] and 180 nM in assay [3].
For `Cc1ccn(-c2cc(C(N)=O)nc(-c3cccc(C#C[C@]4(O)CCN(C)C4=O)c3)n2)n1` [Example 166, 2-[3-[2-[(3R)-3-hydroxy-1-methyl-2-oxo-pyrrolidin-3-yl]ethynyl]phenyl]-6-(3-methylpyrazol-1-yl)pyrimidine-4-carboxamide], in assay [1], the Ki was < 0.05 nM. Also, the IC50 in assay [2] was > 2000 nM; in assay [3], 59 nM.
The corresponding values for `CN1CC[C@@](O)(C#Cc2cc(F)cc(-c3nc(C(N)=O)c(N)cc3F)c2)C1=O` [Example 167, 3-amino-5-fluoro-6-[3-fluoro-5-[2-[(3R)-3-hydroxy-1-methyl-2-oxo-pyrrolidin-3-yl]ethynyl]phenyl]pyridine-2-carboxamide] are < 0.05 nM, > 2000 nM and 85 nM.
`Cc1cc(C(N)=O)nc(-c2cc(F)cc(C#C[C@]3(O)CCN(C)C3=O)c2)c1` [Example 168, 6-[3-fluoro-5-[2-[(3R)-3-hydroxy-1-methyl-2-oxo-pyrrolidin-3-yl]ethynyl]phenyl]-4-methyl-pyridine-2-carboxamide] gave an inhibitory constant (Ki) in assay [1] of 0.16 nM. Besides, the IC50 is > 2000 nM in assay [2] and 130 nM in assay [3].
Regarding `COc1cc(-c2cccc(C#C[C@]3(O)CCN(C)C3=O)c2)nc(C(N)=O)c1C` [Example 169, 6-[3-[2-[(3R)-3-hydroxy-1-methyl-2-oxo-pyrrolidin-3-yl]ethynyl]phenyl]-4-methoxy-3-methyl-pyridine-2-carboxamide], the affinity in assay [1], expressed as Ki, was 0.55 nM. Also, the IC50 in assay [2] is > 2000 nM; in assay [3] it was 196 nM.
Regarding `Cc1cc(-c2cccc(C#C[C@]3(O)CCN(C)C3=O)c2)nc(C(N)=O)c1N` [Example 170, 3-amino-6-[3-[2-[(3R)-3-hydroxy-l-methyl-2-oxo-pyrrolidin-3-yl]ethynyl]phenyl]-4-methyl-pyridine-2-carboxamide], in assay [1], the Ki is < 0.1 nM. In addition, the half-maximal inhibitory concentration (IC50) is > 2000 nM in assay [2] and 26 nM in assay [3].
The molecule `COc1cc(C(N)=O)nc(-c2cc(F)cc(C#C[C@]3(O)CCN(C)C3=O)c2)c1` [Example 171, 6-[3-fluoro-5-[2-[(3R)-3-hydroxy-1-methyl-2-oxo-pyrrolidin-3-yl]ethynyl]phenyl]-4-methoxy-pyridine-2-carboxamide] yielded a Ki in assay [1] of 0.24 nM. In addition, the IC50 in assay [2] is > 2000 nM; in assay [3], 132 nM.
Turning to `Cc1nc(-c2cccc(C#C[C@]3(O)CCN(C)C3=O)c2)nc(C(N)=O)c1N` [Example 172, 5-amino-2-[3-[2-[(3R)-3-hydroxy-1-methyl-2-oxo-pyrrolidin-3-yl]ethynyl]phenyl]-6-methyl-pyrimidine-4-carboxamide], the Ki in assay [1] was found to be 0.36 nM. The IC50 was > 2000 nM in assay [2] and 78 nM in assay [3].
The molecule `CN1CC[C@@](O)(C#Cc2cccc(-c3cc(C(F)F)cc(C(N)=O)n3)c2)C1=O` [Example 173, 4-(difluoromethyl)-6-[3-[2-[(3R)-3-hydroxy-1-methyl-2-oxo-pyrrolidin-3-yl]ethynyl]phenyl]pyridine-2-carboxamide] registered a Ki in assay [1] of 0.31 nM. For the same molecule, the IC50 is > 2000 nM in assay [2] and 108 nM in assay [3].
`CN1CC[C@@](O)(C#Cc2cccc(-c3cc(N4CCCC4=O)cc(C(N)=O)n3)c2)C1=O` [Example 174, 6-[3-[2-[(3R)-3-hydroxy-1-methyl-2-oxo-pyrrolidin-3-yl]ethynyl]phenyl]-4-(2-oxopyrrolidin-1-yl)pyridine-2-carboxamide] showed a Ki in assay [1] of 0.53 nM. For the same molecule, the IC50 in assay [2] is > 2000 nM; in assay [3] it was 449 nM.

By Ki is commonly meant the dissociation constant of the complex between target and ligand, obtained from inhibition or displacement. In general, IC50 refers to the midpoint of a concentration-inhibition curve.

The values are drawn from patent publication US20160185797A1, “ALKYNYL ALCOHOLS AND METHODS OF USE” (Genentech, Inc., priority 2013, published 2016).
